From patent publication US8278464B2, “Insecticides” (Syngenta Crop Protection LLC, priority 2006, dated 2012) come the findings set out here.

The subject of data set [1] is Spodoptera littoralis (Egyptian Cotton Leafworm). Nature of the data set: Activity against Spodoptera littoralis, cotton leaf discs sprayed (Example B1). In kind it is in vivo. The following applies: foliar, 72 h, L1 larvae, checked 3 days after treatment. From the text: Cotton leaf discs are placed on agar in a 24-well microtiter plate and sprayed with test solutions. After drying, the leaf discs are infested with 5 L1 larvae. The samples are checked for mortality, repellent effect, feeding behaviour, and growth regulation 3 days after treatment (DAT).

Data set [2] relates to Heliothis virescens (Tobacco Budworm). Nature of the data set: Activity against Heliothis virescens, eggs on artificial diet (Example B2). Particulars: 96 h, eggs 0-24 h old, incubation 4 days. In kind it is in vivo. As to the method: Eggs (0-24 h old) are placed in 24-well microtiter plate on artificial diet and treated with test solutions by pipetting. After an incubation period of 4 days, samples are checked for egg mortality, larval mortality, and growth regulation.

Data set [3] concerns Plutella xylostella (Diamond Back Moth). The data set can be described thus: Activity against Plutella xylostella, artificial diet MTP (Example B3). In kind it is in vivo. The following applies: 120 h, L2 larvae, incubation 5 days. How it is done: (§1) 24-well microtiter plate (MTP) with artificial diet is treated with test solutions by pipetting. After drying, the MTP's are infested with larvae (L2) (10-15 per well). After an incubation period of 5 days, samples are checked for larval mortality, antifeedant and growth regulation. In this test, compounds listed in the Tables above show good activity. In particular compounds T13.1.2, T15.1.1, T15.1.91, T13.1.1, T9.1.2 (diastereomer A), T9.1.2 (diastereomer B), T16.1.1, T17.1.2 (diastereomer A), T17.1.2 (diastereomer B), T16.1.91, T13.1.92, T13.1.361, T13.1.391, T13.1.91, T13.1.6, T13.1.96, T44.1.2, T13.1.8, T13.1.23, T13.1.93, T13.1.113, T13.1.21, T13.1.111 have an activity of over 80% at 400 ppm.

Data set [4] deals with Diabrotica balteata (Corn Root Worm). The data set can be described thus: Activity against Diabrotica balteata, artificial diet MTP (Example B4). The following applies: 120 h, L2 larvae, incubation 5 days. Type of data set: in vivo. How it is done: as §1, with “(6-10” for “(10-15”, “B),” for “B), T16.1.1,”, “T13.1.92,” for “T13.1.92, T13.1.361, T13.1.391,”, “T13.1.23,” for “T13.1.23, T13.1.93,”

Data set [5] has as its system Myzus persicae (Green Peach Aphid). The data set can be described thus: Activity against Myzus persicae, systemic, pea seedlings (Example B6). Type of data set: in vivo. The following applies: 144 h, 6 days after introduction. From the text: Roots of pea seedlings, infested with an aphid population of mixed ages, are placed directly in the test solutions. 6 days after introduction, samples are checked for mortality and special effects on the plant.

Data set [6] concerns Thrips tabaci (Onion Thrips). The data set can be described thus: Activity against Thrips tabaci, sunflower leaf discs (Example B7). Particulars: foliar, 144 h, incubation 6 days. Type of data set: in vivo. As to the method:
Sunflower leaf discs are placed on agar in a 24-well microtiter plate and sprayed with test solutions. After drying, the leaf discs are infested with a thrips population of mixed ages. After an incubation period of 6 days, samples are checked for mortality and special effects (e.g. phytotoxicity).

The subject of data set [7] is Spodoptera littoralis (Cotton Leafworm). Nature of the data set: Systemic insecticide test for Spodoptera littoralis, maize seedlings, 12.5 ppm (Example B9). In kind it is in vivo. Particulars: 96 h, 12.5 ppm in water, systemic via maize seedlings, larvae incubated four days. How it is done:
Four day old maize seedlings (Zea mais, variety Stoneville) are placed individual in vials containing 24 ml water into which the chemical is diluted at 12.5 ppm. Seedlings are allowed to grow for six days. Subsequently leaves are cut and placed in a Petri dish (5 cm diameter), inoculated with twelve to fifteen 1st instar S. littoralis larvae and incubated for four days in a growth chamber (25° C., 50% r.h., 18:6 L:D photo period). Number of alive insects are counted and percentage of dead calculated. Tests were conducted with one replicate.

The melting point is the temperature, or range, at which the solid turns liquid. For orientation: pest or weed control means the degree to which the test organism was suppressed or injured, in per cent.

Where only a bound is given, the exact number is not on record here.

For `Cc1cc(C#N)cc(C(=O)NC2(C)CS(=O)(=O)C2)c1NC(=O)c1cc(OCC(F)(F)F)nn1-c1ncccc1Cl`, the melting point fell in the range of 216 to 219 °C.
`Cc1cc(Cl)cc(C(=O)NC2(C)CS(=O)(=O)C2)c1NC(=O)c1cc(OCC(F)(F)F)nn1-c1ncccc1Cl` gave a melting point of more than 250 °C.
For the compound `CCC1(NC(=O)c2cc(Cl)cc(C)c2NC(=O)c2cc(C(F)(F)F)nn2-c2ncccc2Cl)CS(=O)(=O)C1`, the melting point was in the range of 234 to 236 °C.
With `Cc1cc(Cl)cc(C(=O)NC2CS(=O)(=O)C2)c1NC(=O)c1cc(C(F)F)nn1-c1ncccc1Cl`, the melting point was in the range of 151 to 155 °C.
Still for that read-out and setting: in the case of `Cc1cc(Cl)cc(C(=O)NC2(C)CS(=O)(=O)C2)c1NC(=O)c1cc(C(F)F)nn1-c1ncccc1Cl` it was 170 to 173 °C.
Still for that read-out and setting: in the case of `Cc1cc(C#N)cc(C(=O)NC2CS(=O)(=O)C2)c1NC(=O)c1cc(C(F)F)nn1-c1ncccc1Cl` it was 158 to 160 °C; in that of `Cc1cc(C#N)cc(C(=O)NC2(C)CS(=O)(=O)C2)c1NC(=O)c1cc(C(F)F)nn1-c1ncccc1Cl`, 238 to 241 °C; in that of `Cc1cc(Cl)cc(C(=O)NC2(C)CS(=O)(=O)C2)c1NC(=O)c1cc(Br)nn1-c1ncccc1Cl`, 191 to 193 °C.
Still for that read-out and setting: in the case of `Cc1cc(C#N)cc(C(=O)NC2(C)C[S+]([O-])C2)c1NC(=O)c1cc(OCC(F)(F)F)nn1-c1ncccc1Cl` (stereo not drawn) it was 223 to 225 °C.
`Cc1cc(Cl)cc(C(=O)NC2(C)C[S+]([O-])C2)c1NC(=O)c1cc(OCC(F)(F)F)nn1-c1ncccc1Cl` (stereo not drawn) gave a melting point of 220 to 222 °C.
On the same count and under the same terms, in the case of `Cc1cc(Cl)cc(C(=O)NC2C[S+]([O-])C2)c1NC(=O)c1cc(C(F)F)nn1-c1ncccc1Cl` (stereo not drawn) it was 171 to 173 °C.
On the same count and under the same terms, in the case of `Cc1cc(Cl)cc(C(=O)NC2(C)C[S+]([O-])C2)c1NC(=O)c1cc(C(F)F)nn1-c1ncccc1Cl` (stereo not drawn) it was 169 to 173 °C; in that of `Cc1cc(C#N)cc(C(=O)NC2C[S+]([O-])C2)c1NC(=O)c1cc(C(F)F)nn1-c1ncccc1Cl` (stereo not drawn), 230 to 233 °C; in that of `Cc1cc(C#N)cc(C(=O)NC2(C)C[S+]([O-])C2)c1NC(=O)c1cc(C(F)F)nn1-c1ncccc1Cl` (stereo not drawn), 235 to 237 °C.
The compound `Cc1cc(Cl)cc(C(=O)NC2(C)C[S+]([O-])C2)c1NC(=O)c1cc(Br)nn1-c1ncccc1Cl` (stereo not drawn) displayed a melting point of 244 to 247 °C.
The same measure, in the same setting: in the case of `Cc1cc(C#N)cc(C(=O)NC2(C)C[S+]([O-])C2)c1NC(=O)c1cc(Br)nn1-c1ncccc1Cl` (stereo not drawn) it was 244 to 249 °C.
Still for that read-out and setting: in the case of `Cc1cc(Cl)cc(C(=O)NC2C[S+]([O-])C2)c1NC(=O)c1cc(C(F)(F)F)nn1-c1ncccc1Cl` (single isomer, unassigned) it was 241 to 244 °C.
`Cc1cc(Cl)cc(C(=O)NC2CS(=O)(=O)C2)c1NC(=O)c1cc(C(F)(F)F)nn1-c1ncccc1Cl` [T13.1.1]: the pest or weed control at 400 ppm in data set [1], in data set [2], in data set [3], in data set [4], in data set [5] and in data set [6] was more than 80% in each case. In addition, the pest or weed control at 12.5 ppm in data set [7] is more than 80%.
As for `Cc1cc(Cl)cc(C(=O)NC2CS(=O)(=O)C2)c1NC(=O)c1cc(Br)nn1-c1ncccc1Cl` [T13.1.6], the pest or weed control at 400 ppm in data set [1], in data set [2], in data set [3], in data set [4], in data set [5] and in data set [6] was more than 80% throughout. Besides, the pest or weed control at 12.5 ppm in data set [7] is more than 80%.
Turning to `CCC1(NC(=O)c2cc(Cl)cc(C)c2NC(=O)c2cc(Br)nn2-c2ncccc2Cl)CS(=O)(=O)C1` [T13.1.8], the pest or weed control at 400 ppm in data set [1], in data set [2], in data set [3] and in data set [4] was more than 80% in each case. Besides, the pest or weed control at 12.5 ppm in data set [7] was more than 80%.
Take `CCC1(NC(=O)c2cc(Cl)cc(C)c2NC(=O)c2cc(OCC(F)(F)F)nn2-c2ncccc2Cl)CS(=O)(=O)C1` [T13.1.23]: the pest or weed control at 400 ppm in data set [1], in data set [2], in data set [3] and in data set [4] was more than 80% throughout. In data set [7], this compound showed a pest or weed control at 12.5 ppm of more than 80%.
For the compound `CCC1(NC(=O)c2cc(C#N)cc(C)c2NC(=O)c2cc(C(F)(F)F)nn2-c2ncccc2Cl)CS(=O)(=O)C1` [T13.1.93], the pest or weed control at 400 ppm in data set [1], in data set [2], in data set [3], in data set [5] and in data set [6] was more than 80% each time.
Take `Cc1cc(C#N)cc(C(=O)NC2CS(=O)(=O)C2)c1NC(=O)c1cc(OCC(F)(F)F)nn1-c1ncccc1Cl` [T13.1.111]: the pest or weed control at 400 ppm in data set [1], in data set [2], in data set [3], in data set [4] and in data set [6] was more than 80% each time.
On to `CCC1(NC(=O)c2cc(C#N)cc(C)c2NC(=O)c2cc(OCC(F)(F)F)nn2-c2ncccc2Cl)CS(=O)(=O)C1` [T13.1.113], for which the pest or weed control at 400 ppm in data set [1], in data set [2], in data set [3], in data set [4], in data set [5] and in data set [6] was more than 80% in each case. This compound also had a pest or weed control at 12.5 ppm in data set [7] of more than 80%.
Turning to `Cc1cccc(C(=O)NC2CS(=O)(=O)C2)c1NC(=O)c1cc(C(F)(F)F)nn1-c1ncccc1Cl` [T13.1.361], the pest or weed control at 400 ppm in data set [1], in data set [2] and in data set [3] was more than 80% each time. The same compound displayed a pest or weed control at 12.5 ppm in data set [7] of more than 80%.
Regarding `Cc1cc(Cl)cc(C(=O)NC2CS(=O)(=O)C2(C)C)c1NC(=O)c1cc(C(F)(F)F)nn1-c1ncccc1Cl` (stereo not drawn) [T15.1.1], the pest or weed control at 400 ppm in data set [1], in data set [2], in data set [3] and in data set [4] was more than 80% in each case. For the same compound, the pest or weed control at 12.5 ppm in data set [7] is more than 80%.
For `Cc1cc(Cl)cc(C(=O)NC2C(C)(C)S(=O)(=O)C2(C)C)c1NC(=O)c1cc(C(F)(F)F)nn1-c1ncccc1Cl` [T16.1.1], the pest or weed control at 400 ppm in data set [1], in data set [2] and in data set [3] was more than 80% in each case.
`Cc1cc(C#N)cc(C(=O)NC2C(C)(C)S(=O)(=O)C2(C)C)c1NC(=O)c1cc(C(F)(F)F)nn1-c1ncccc1Cl` [T16.1.91]: the pest or weed control at 400 ppm in data set [1], in data set [2], in data set [3], in data set [4] and in data set [6] was more than 80% in each case.
As to `Cc1cc(Cl)cc(C(=O)NC2(C)CN(Cc3ccccc3)C2)c1NC(=O)c1cc(C(F)(F)F)nn1-c1ncccc1Cl` [T44.1.2, 2-(3-chloro-pyridin-2-yl)-5-trifluoromethyl-2H-pyrazole-3-carboxylic acid [4-chloro-2-methyl-6-(3-methyl-N-benzylazetidine-3-ylcarbamoyl)-phenyl]-amide], the pest or weed control at 400 ppm in data set [1], in data set [2], in data set [3], in data set [4] and in data set [6] was more than 80% in each case. The compound further yielded a pest or weed control at 12.5 ppm in data set [7] of more than 80%.
